Results reported in patent US20120219568A1, “EPIDITHIODIOXO[…] USES THEREOF IN TREATING CANCER” (priority 2011, published 2012).
pIC50: −log10 of the molar value.

Key:
SW620 cells [1] = assay: SW620 growth with anticancer drugs, MTT assay; format: cell-based, human; conditions: Verticillin A pretreatment, then Etoposide, Cisplatin, 5-FU or Doxorubicin
Procedure: (§1) For cell viability assay, cells were seeded in wells of 96-well plates for 2 days and then treated with different concentrations of mushroom extract fractions or purified verticillin A for 2 days. The cells were then incubated with MTT (3-(4,5-dimethylthiazol-2-yl)-2,5-diphenyltetrazolium bromide) using the MTT assay kit (ATCC, Manassas, Va.) according to the manufacturer's instructions.
Etoposie, Cisplatin, 5-FU and Doxorubicin are commonly used cancer drugs that suppress tumor cell growth through their cytotoxicity. High cytotoxicity is often associated with high dose of their drugs. Furthermore, tumor cells often develop resistance to these cytotoxic drugs. To determine whether Verticillin A can increase the efficacy of these drugs and overcome drug resistance, the effectiveness of Verticillin A combined with these 4 drugs in suppression of tumor cell growth was tested in vitro. SW620 cell sensitivity to these drugs was first measured. SW620 cells are resistant to Etoposide but sensitive to 5-FU. […] SW620 cells were next pretreated with Verticillin A, followed by treatment with Etoposide (1 μg/ml), Cisplatin (1 μg/ml), 5-FU ([…]) and Doxorubicin (0.01 μg/ml), respectively.

MCF-7 = assay: MTT growth inhibition, MCF-7; format: cell-based; conditions: Homo sapiens, MCF7, Mammary Carcinoma, MTT assay
Procedure: as §1
(§2) To determine whether verticillin A inhibits other types of tumor cell growth, Mammary carcinoma (Bcap-37 and MCF-7), heptocarcinoma (HepG2), cervical (HeLa), liver (SMMC-7721), lung (SPC-A1) cancer cells and T cell leukemia (Jurkat) were cultured in the presence of different concentrations of verticillin A and examined for the efforts of verticillin A on the growth rate of these tumor cells in vitro.

TET1 = TET1 expression, RT-PCR; format: cell-based, human; conditions: colon carcinoma cells, dose-dependent
Procedure: FIG. 11A is an acrylamide gel showing that LS411N cells were treated with Verticillin A at the indicated concentrations for 24 h and analyzed for TET1, TET2 and TET3 level by RT-PCR.
TET1 is an enzyme with very recently identified function in converting 5-methylcytosine (5mC) to 5-hydroxylmethylcytosine (5hmC), and eventually to unmodified Cytosine to reverse DNA methylation (Veron N, Peters A H. Epigenetics: Tet proteins in the limelight. Nature 2011; 473:293-4; Ito et al. Tet proteins can convert 5-methylcytosine to 5-formylcytosine and 5-carboxylcytosine. Science 2011; 333:1300-3; Guo et al. Hydroxylation of 5-methylcytosine by TET1 promotes active DNA demethylation in the adult brain. Cell 2011; 145:423-34). […] Thus, Verticillin A is a small molecule TET1 activator. Verticillin A appears to be the first reported small molecule TET1 activator.

[2] = system: BNIP3, IRF8, Neurog1, p15ink4b, RUNX3; assay: Expression of genes with methylated promoters; format: cell-based, human; conditions: SW620, verticillin A 0-50 nM
Procedure: To determine whether verticillin A inhibits DNA methylation in other gene promoters, 4 other genes (IRF8, Neurog1, p15ink4b, RUNX3) with known promoter DNA methylation in human colon carcinoma cells were selected. SW620 cells were treated with AzadC (0-1.0 μM) and verticillin A (0-50 nM), respectively, and analyzed for the expression of BNIP3 and these 4 genes.

HepG2 cells = assay: DNA fragmentation assay; format: cell-based, human; conditions: HepG2, agarose gel electrophoresis
Procedure: Tumor cells were lysed in lysis buffer (5 mM Tris-HCl, pH 8.0, 100 mM Ethylenediaminetetraacetic acid (EDTA), 1% (w/v) Sodium dodecyl sulfate (SDS), and proteinase K) at 45° C. for 2 h. RNA was removed by incubation with RNase A. Genomic DNA was extracted by phenol/chloroform/isoamyl alcohol (25:24:1) and precipitated with ethanol. The purified genomic DNA was then analyzed by electrophoresis in a 1.2% agarose gel.
The growth inhibitory effort of the purified verticillin A was examined on HepG2 cells. Tumor cells were cultured in the presence of different concentrations of verticillin A and analyzed for the growth by MTT assay 24 and 72 h later, respectively. […] To determine whether the growth inhibitory effect is due to increased tumor cell death, genomic DNA was isolated from the treated tumor cells and analyzed by agarose gel electrophoresis.

SW620 tumor xenograft = SW620 tumor xenograft growth in athymic mice; format: in vivo
Procedure: (§3) Athymic mice were subcutaneously inoculated with human hepatoma HepG2 and colon carcinoma SW620 cells, respectively. The tumor-bearing mice were randomized into experimental groups. The control mice were given saline. The treatment group was intravenously injected with verticillin A at the doses of 1 and 2 mg/kg body weight. Tumor size was measured in 2 diameter with micrometer caliper at the indicate times to permit calculation of tumor volume, V=(a×b^2)/2, where “a” is the length and “b” is the width in millimeters. At the end of the experiment, all the animals were sacrificed, The tumor inhibitory rates were calculated using the following formula: [(mean tumor volume of control nude mice−mean tumor volume of treated nude mice)/mean tumor volume of control nude mice]×100%.
The disclosed observations indicate that verticillin A can dramatically increase TRAIL-induced tumor cell apoptosis. To determine whether these in vitro observations can be extended to enhance TRAIL-mediated tumor suppression in vivo, SW620 cells were injected subcutaneously to athymic mice, verticillin A and TRAIL, either used as single agent or in combination, were then injected to the tumor-bearing mice. Tumor growth rate were measured in different time points. Verticillin A can inhibit tumor cell growth in vitro at high dose and sensitize tumor cells to TRAIL-induced apoptosis at a low dose. […] As expected, SW620 tumors are resistant to TRAIL (Voelkel-Johnson C, et al. Mol Cancer Ther 2005 4(9):1320-7).

SW620 cells [3] = assay: Sensitization to FasL-induced apoptosis; format: cell-based, human; conditions: SW620, verticillin A pre-treatment then recombinant FasL
Procedure: Because the Fas-mediated apoptosis and TRAIL-induced apoptosis share similar signaling pathways, it was next tested whether Verticillin A also sensitizes tumor cells to FasL-induced apoptosis. SW620 cells were treated with verticillin A, followed by treatment with recombinant FasL.

Bcap-37 = assay: MTT growth inhibition, Bcap-37; format: cell-based; conditions: Homo sapiens, Bcap37, Mammary Carcinoma, MTT assay
Procedure: as §1, §2

HepG2 tumor = HepG2 tumor growth in athymic mice; format: in vivo; conditions: intravenous injection
Procedure: To determine whether the growth inhibitory effect of verticillin A can be extended to in vivo tumor growth inhibition, HepG2 cells were injected subcutaneously to athymic mice. Tumor-bearing mice were then treated with verticillin A by intravenous injection.
as §3

CN1C(=O)[C@]23SS[C@]1(C)C(=O)N2C1Nc2ccccc2[C@@]1(C12c4ccccc4NC1N1C(=O)[C@@]4(C)SS[C@]1(C(=O)N4C)[C@H]2O)[C@@H]3O (stereo partly drawn) [Verticillin A]
tumor growth inhibitory effect of the drugs combined with Verticillin A (SW620 cells [1]): significantly increased the tumor growth inhibitory effects
pIC50 (MCF-7): 7.19
TET1 expression (TET1): up-regulates TET1 expression
expression levels of BNIP3, IRF8, Neurog1, p15ink4b, RUNX3 [2]: dramatically increased the expression levels of BNIP3 and these 4 genes
genomic DNA fragmentation (HepG2 cells): induces genomic DNA fragmentation
tumor suppression activity, verticillin A alone (SW620 tumor xenograft; 0.125 mg/kg body weight): did not exhibit significant tumor suppression activity
tumor xenograft growth, combination treatment (SW620 tumor xenograft; low dose verticillin A (0.125 mg/kg) and TRAIL): significantly inhibited the tumor xenograft growth
lowest dose enhancing the efficacy of TRAIL in suppressing human cancer growth (SW620 tumor xenograft; nude mice): 0.125 mg/kg
sensitization to FasL-induced apoptosis (SW620 cells [3]): significantly increases tumor cells to FasL-induced apoptosis
pIC50 (Bcap-37): 6.92
HepG2 tumor growth inhibition (HepG2 tumor; 2 mg/kg body weight): significantly inhibited HepG2 tumor growth
HepG2 tumor growth inhibition, dose dependence (HepG2 tumor; 1 and 2 mg/kg body weight): tumor growth inhibitory effects at a dose-dependent manner
